Here are results for five molecules from patent US7838539B2, “Nicotine receptor agonists in stem cell and progenitor cell recruitment” (priority 1999, dated 2010).

The subject of series [1] is fibrovascular growth into the disc (index of angiogenesis). Put plainly: Disc angiogenesis system (DAS). The format is in vivo, C57BL/6J mice. To be noted: for effect on nicotine-induced fibrovascular growth: oral indomethacin 20 mcg/ml or LNNA 6 mg/ml; for angiogenesis in comparison to vehicle: agent in disc pellet: bFGF 20 mcg, Del-1 0.2 M, nicotine 10^-6 M. The source says:
To study whether nicotine induces angiogenesis in vivo, we employed the disc angiogenesis system (DAS) (Kowalski et al. (1992) Exp Mol Pathol 56(1):1-19; Fajardo et al. (1998) Lab Invest 58:718-7244).
Preparation of the disc The DAS consisted of a disc (11 mm in diameter and 1 mm thickness) made of a polyvinyl alcohol sponge (Kanebo PVA, Rippey Co., Santa Clara, Calif.). Both sides were covered with nitrocellulose cell-impermeable filters (Millipore filters, 0.45 μm in pore diameter, Millipore, SF, Calif.) of the same diameter as the sponge disc, fixed to the sponge using Millipore glue #1 (xx70000.00, Millipore). As a result, cells (and thus vessels) could penetrate or exit only through the rim of the disc (Kowalski et al. (1992) Exp Mol Pathol 56(1):1-19; Fajardo et al. (1998) Lab Invest 58:718-7244).
In order to study the local effect of nicotine on angiogenesis, nicotine was placed in a pellet which was added directly to the disc. Briefly, a 1.5-mm core (pellet) was cut from the disc center. Both the pellets and discs were sterilized prior to assembly in a laminar flow hood. The pellet was loaded with up to 20 mcl (μl) of the nicotine solution and subsequently air-dried. We placed in the disc pellets with either vehicle (PBS, Sigma, Chemical Co., St Louis, Mo., n=5) or nicotine (10^-6 M, Aldrich Chemical Company, Milwaukee, Wis., n=5) to study the effects of locally administered nicotine. For comparison, in some cases basic fibroblast growth factor (bFGF; 20 mcg) or Del-1 protein (0.2 M) was added to the pellet, rather than nicotine. Both bFGF and Del-1 are known to induce angiogenesis. The pellet was then coated with ethylene-vinyl acetate co-polymer (Elvax, Dupont, Chemcentral Corp., Chicago, Ill.) which would permit slow release of the nicotine from the pellet into the disc. The pellet was then re-inserted into the disc before sealing the disc with the millipore filters.
To study the systemic effects of nicotine, in some cases the animals were administered nicotine in their drinking water (see below).
Implantation of the disc The mice were anesthetized with 4% chloralhydrate [intraperitoneal administration (i.p.), 0.1 cc/10 g body weight]. The flanks and posterior surface of the thorax were shaved and cleaned with saturated 70% isopropyl alcohol. A 2-cm incision was made in the skin of the flank contra-lateral to the implantation site. Blunt dissection through the subcutaneous tissue produced a channel into which the saline moistened disc was inserted. The skin was closed with 5.0 silk suture (Kowalski et al. (1992) Exp Mol Pathol 56(1):1-19; Fajardo et al. (1998) Lab Invest 58:718-7244).
Disc removal and preparation Two weeks after disc implantation, the mice were sacrificed with an overdose of 4% chloral hydrate (i.p.) and cervical dislocation. A careful incision was made next to the skin overlying the implanted disc, and the disc was gently removed from the implantation site. Attached tissue was carefully detached from the disc. After removing the disc, one filter was separated from the disc. Discs were then fixed in 10% formalin and embedded flat in paraffin. Subsequently, 5 μm sections were made in a plane through the center of the disc and parallel to the disc surface.
Quantitation of results The disc sections were stained with H&E for light microscopy and histomorphometric measurement of radial growth, and stained with toluidine blue for quantitative determination of total area of fibrovascular growth. Using a video microscope and a computer assisted digital image analysis system (NIH Image 1.59b9), the entire area of fibrovascular growth in the toluidine blue stained disc was calculated and expressed in mm^2. As described in a previous study, total fibrovascular growth area is directly proportional to the total area of the disc occupied by blood vessels (Kowalski et al. (1992) Exp Mol Pathol 56(1):1-19; Fajardo et al. (1998) Lab Invest 58:718-7244).

Series [2] concerns capillary density in hindlimb muscle. How it is done: Mice were anesthetized with 4% chloral hydrate [intraperitoneal administration (i.p.), 0.1 cc/10 g body weight). The medial surface of both hind limbs were shaved and then cleaned with betadine solution. A 1.5-cm longitudinal incision was performed, extending from the knee to the inguinal ligament. Through this incision, the superficial femoral artery was dissected free along its length. After the distal ends of both the external iliac and superficial femoral arteries were ligated with 7.0 (Ethicon), complete excision of the femoral artery was performed. An additional set of mice underwent sham operation. The incisions were then closed with discontinuous stitches of 5.0 silk suture (Ethicon). Ampicillin (1 mg/10 gm body weight) intraperitoneal injection was administered after surgical procedure.
Tissue Preparation. Three weeks after surgery, mice were euthanized with an overdose of 4% chloral hydrate (i.p) and cervical dislocation, and the adductor and semimembranous muscles were collected for capillary density assessment. Briefly, a longitudinal incision in the medial thigh was made to expose the entire hindlimb muscle. The adductor and semimembranous muscles were removed and immediately frozen in OCT. Subsequently, sections 5 μm were taken from the mid-region of each muscle in a transverse orientation. The sections were air dried and fixed in acetone.
Capillary Densitometry. Immunohistochemistry was performed using an alkaline phosphatase assay to identify the endothelial cells. An eosin counterstain was used to differentiate myocytes. Capillaries and myocytes were identified and counted using light microscopy (20×). For each section, four different fields were selected and the total number of capillaries and myocytes per field determined. These values were averaged to provide a determination of capillary density for each experimental limb. To ensure that value for capillary density was not overestimated due to muscle atrophy, or underestimated due to interstitial edema, capillary density was expressed as a ratio of capillaries to myocytes present in the same field.
Daily intramuscular injections of nicotine solution or vehicle were administered (50 μl) for a period of three weeks.

The next series relates to hematopoietic stem cells. To be noted: 100 μg/ml in drinking water, 6 weeks. As for the experimental part:
(§1) Mice (C57B16j) were given solution containing vehicle (0.4% saccharine in distilled water) or nicotine (100 μg/ml) ad libitum in their drinking water. After 6 weeks, peripheral blood, bone marrow and spleen were harvested. Cell counts were obtained in the blood, spleen and bone marrow, and bone marrow cells were isolated for fluorescent activated cell sorting (FACS). To detect hematopoietic stem cells (HSCs), fluorescently labeled antibodies directed against the following antigens were used: Lineage antigens (CD3,4,5, and 8; B220; Gr1, Mac1 and Ter119), cKit, Sca 1, and Flk2. HSCs were conventionally defined as Lin−, cKit+, Sca1+, and […]. All cells were stained with PI (propidium iodide) to separate live from dead cells.

The nature of the next series: in vivo. To be noted: C57B16j, mouse, plasma, oral, 100 μg/ml in drinking water. As for the experimental part: as §1
Series [3] deals with endothelial progenitor cells (EPCs). To be noted: nicotine 0.1 g/L drinking water, 3 weeks after ischemia.
Description: In order to further examine the role of nicotine in induction of angiogenesis, the recruitment of endothelial progenitor cells was studied.
Parabiotic mouse pairs were created to investigate the mobilization and incorporation of precursors to vessel formation in normal and ischemic conditions using a hind limb ischemia model of angiogenesis (as described above), and the effect of nicotine. The parabiotic partners were selected so that they shared all major histocompatibility antigens, and were therefore free of immunological barriers to cell migration and angiogenesis. Assaying for genetic markers unique to one animal of the pair (e.g., the Y chromosome where the pair is made up of a female mouse and a male mouse) provides for unambiguous cell tracking between the mice. The model is further optimized by the use of a second genetic marker to differential the individuals (e.g., a transgene present in one partner and not the other), thus increasing the sensitivity and the accuracy of the identification of the origin of single cells. […]
Setting [4] is: highest intramuscular dose (3.2 μg/kg daily, three weeks).

Read-outs that look alike come from different tables or passages of the source.

On to `COc1ccc2c(c1)c(CC(=O)O)c(C)n2C(=O)c1ccc(Cl)cc1` [indomethacin], for which the “effect on nicotine-induced fibrovascular growth” value in series [1] (local nicotine in disc) and in series [1] (systemic nicotine) was “blocked” each time.

For `NC(=NCCC[C@H](N)C(=O)O)N[N+](=O)[O-]` [LNNA, L, nitro-arginine], the “effect on nicotine-induced fibrovascular growth” value in series [1] (local nicotine in disc) and in series [1] (systemic nicotine) was “blocked” throughout.

Consider `CN1CCC[C@H]1c1cccnc1` [nicotine, S-3-(1-methyl-2-pyrrolidinyl)pyridine], for which the “angiogenesis in comparison to vehicle” value in series [1] is reported as “increased angiogenesis to the same degree”. Moreover, in series [1] (systemic nicotine in drinking water), the “angiogenesis with systemic nicotine compared with locally administered bFGF and Del-1” value is listed as “enhanced angiogenesis to a much greater degree”. In addition, the “angiogenic effect of systemic compared with local nicotine administration” value in series [1] (systemic versus local nicotine) is “greater than local nicotine administration”. For the same molecule, the “capillary density in the ischemic limb” value in series [2] (0.03 μg/kg intramuscular daily for three weeks, vehicle control 0.35) is given as 0.67 capillaries/myocyte. Besides, the “angiogenic effect, dose dependence” value in series [2] (higher intramuscular doses) was “less angiogenesis is observed”. Further, in series [2] (setting [4]), the “angiogenesis in the ischemic limb” value was “angiogenesis was not increased”; the “toxicity at injection site” value was “some toxicity was observed, with evidence of interstitial edema and myocyte necrosis”. Also, the “angiogenic effect, dose dependence” value in series [2] (intermediate intramuscular doses) is “greatest effect”. Besides, in series [2] (intramuscular nicotine in the ischemic limb, untreated non-ischemic limb), the “angiogenic effect in non-ischemic hindlimbs” value is listed as “no angiogenic effect was detected”. Moreover, in the series on hematopoietic stem cells, the “appearance of mice at the time of sacrifice” value is on record as “appeared healthy”, the “cellularity of the bone marrow” value was “increased”, the “cellularity of the spleen” value is “increased” and the “peripheral white blood cell count” value is reported as “elevated”. Also, in the series with hematopoietic stem cells (FACS), the “hematopoietic stem cells (kit/sca+ cells) in bone marrow” value is recorded as “significant increase”, the “long term HSCs (self-renewing cells) in bone marrow” value is listed as “equal increases” and the “short term HSCs in bone marrow” value is recorded as “an increase”. For the same molecule, in the series “in vivo”, the concentration at 6 weeks was 87 ng/mL. Also, in series [3], the number of vessels entry is “significant increase”. In addition, in series [3] (saline group 1.6%, P<0.001), the “percentage of vessels that incorporated EPC” value came out at 7.3%.

For “bFGF: basic fibroblast growth factor, known to induce angiogenesis; comparison agent in the disc pellet”, the “angiogenesis in comparison to vehicle” value in series [1] is “increased angiogenesis to the same degree”.

B1: Del1: Del-1 protein, known to induce angiogenesis; comparison agent in the disc pellet (protein, UniProt O43854 24-480, looked up)
EGF-like repeat and discoidin …: DICDPNPCENGGICLPGLADGSFSCECPDGFTDPNCSSVVEVASDEEEPTSAGPCTPNPCHNGGTCEISEAYRGDTFIGYVCKCPRGFNGIHCQHNINECEVEPCKNGGICTDLVANYSCECPGEFMGRNCQYKCSGPLGIEGGIISNQQITASSTHRALFGLQKWYPYYARLNKKGLINAWTAAENDRWPWIQINLQRKMRVTGVITQGAKRIGSPEYIKSYKIAYSNDGKTWAMYKVKGTNEDMVFRGNIDNNTPYANSFTPPIKAQYVRLYPQVCRRHCTLRMELLGCELSGCSEPLGMKSGHIQDYQITASSIFRTLNMDMFTWEPRKARLDKQGKVNAWTSGHNDQSQWLQVDLLVPTKVTGIITQGAKDFGHVQFVGSYKLAYSNDGEHWTVYQDEKQRKDKVFQGNFDNDTHRKNVIDPPIYARHIRILPWSWYGRITLRSELLGCTEEE
As for B1, in series [1], the “angiogenesis in comparison to vehicle” value is listed as “increased angiogenesis to the same degree”.
